Experimental findings from US20040034078A1 (Agouron Pharmaceuticals, Inc., priority 2002, published 2004) are described below.

The target of one series is purified PARP protein (Homo sapiens, UniProt P09874). Nature of the series: PARP Enzyme Inhibition Assay. It counts as biochemical. The following applies: [32P]NAD+ incorporation, 500 μM NAD+, 25° C.; competitive inhibition fit; read-out: Inhibition Constant Ki. How it is done: The PARP enzyme-inhibiting activities of test compounds were assayed as described by Simonin et al. (J. Biol. Chem. (1993), 268:8529-8535) and Marsischky et al. (J. Biol. Chem. (1995), 270:3247-3254) with minor modifications as follows. Samples (50 μL) containing 20 nM purified PARP protein, 10 μg/mL DNAse I-activated calf thymus DNA (sigma), 500 μM NAD^+, 0.5 μCi [^32P]NAD^+, 2% DMSO, and various concentrations of test compounds were incubated in sample buffer (50 mM Tris pH 8.0, 10 mM MgCl2, 1 mM tris(carboxyethyl)phosphine HCl) at 25° C. for 5 minutes. Under these conditions, the reaction rate was linear for times up to 10 minutes. The reaction was stopped by the addition of an equal volume of ice-cold 40% trichloroacetic acid to the samples, which were then incubated on ice for 15 minutes. The samples were then transferred to a Bio-Dot microfiltration apparatus (BioRad), filtered through Whatman GF/C glass-fiber filter paper, washed 3 times with 150 μL of wash buffer (5% trichloroacetic acid, 1% inorganic pyrophosphate), and dried. [^32P]ADP-Ribose incorporation into the acid-insoluble material was quantitated using a PhosphorImager (Molecular Dynamics) and ImageQuant software. Inhibition constants (Ki) were calculated by non-linear regression analyses using the velocity equation for competitive inhibition (Segel, Enzyme Kinetics: Behavior and Analysis of Rapid Equilibrium and Steady-State Enzyme Systems, John Wiley & Sons, Inc., New York (1975), 100-125). In the case of tight-binding inhibitors, 5 nM enzyme was used and the reaction was incubated at 25° C. for 25 minutes. Ki values for tight-binding inhibitors were calculated using the equation described by Sculley et al. (Biochim. Biophys. Acta (11986), 874:44-53).

The subject of another series is A549 cells. Nature of the series: Cytotoxicity Potentiation Assay. It counts as cell-based. The following applies: ratio of IC50 of topotecan alone to IC50 of topotecan in combination with test compound. Here is the method:
A549 cells (ATCC, Rockville, Md.) were seeded into 96-well cell culture plates (Falcon brand, Fisher Scientific, Pittsburgh, Pa.) 16 to 24 hours before experimental manipulation. Cells were then treated with a test compound (or a combination of test compounds where indicated) for either 3 days or 5 days. At the end of treatments, relative cell number was determined either by MTT assay or SRB assay. For the MTT assay, 0.2 μg/μl of MTT (3-(4,5-dimethylthiazol-2-yl)-2,5-diphenyltetrazolium bromide, Sigma Chemical Co., St. Louis, Mo.) was added to each well of a plate, and the plate was incubated in a cell-culture incubator for 4 hours. Metabolized MTT in each well was solubilized in 150 μl of DMSO (Sigma Chemical Co.) with shaking and quantified with a Wallac 1420 Victor plate reader (EG & G Wallac, Gaithersburg, Md.) at 540 nm. For the SRB assay, cells were fixed with 10% trichloroacetic acid (Sigma Chemical Co) for an hour at 4° C. After extensively washing, fixed cells were stained for 30 minutes with 0.4% sulforhodamine B (SRB, Sigma Chemical Co.) in 1% acetic acid (Sigma Chemical Co). Unbound SRB was washed away with 1% acetic acid. Then the cultures were air-dried, and bound dye was solubilized with 10 mM unbuffered Tris base (Sigma Chemical Co) with shaking. The bound dye was measured photometrically with the Wallac Victor plate reader at 515 nm. The ratio of the OD (optical density) value of a compound-treated culture to the OD value of a mock-treated culture, expressed in percentage, was used to quantify the cytotoxicity of a compound. The concentration at which a compound causes 50% cytotoxicity is referred to as IC50. To quantify the potentiation of the cytotoxicity of topotecan or temozolomide by test compounds, a dimensionless parameter PF50 is used and is defined as the ratio of the IC50 Of topotecan or temozolomide alone to the IC50 of topotecan or temozolomide in combination with a test compound. For the compounds of the invention, PF50 values were determined by testing with topotecan.

Sequence of purified PARP protein (P09874 whole entry): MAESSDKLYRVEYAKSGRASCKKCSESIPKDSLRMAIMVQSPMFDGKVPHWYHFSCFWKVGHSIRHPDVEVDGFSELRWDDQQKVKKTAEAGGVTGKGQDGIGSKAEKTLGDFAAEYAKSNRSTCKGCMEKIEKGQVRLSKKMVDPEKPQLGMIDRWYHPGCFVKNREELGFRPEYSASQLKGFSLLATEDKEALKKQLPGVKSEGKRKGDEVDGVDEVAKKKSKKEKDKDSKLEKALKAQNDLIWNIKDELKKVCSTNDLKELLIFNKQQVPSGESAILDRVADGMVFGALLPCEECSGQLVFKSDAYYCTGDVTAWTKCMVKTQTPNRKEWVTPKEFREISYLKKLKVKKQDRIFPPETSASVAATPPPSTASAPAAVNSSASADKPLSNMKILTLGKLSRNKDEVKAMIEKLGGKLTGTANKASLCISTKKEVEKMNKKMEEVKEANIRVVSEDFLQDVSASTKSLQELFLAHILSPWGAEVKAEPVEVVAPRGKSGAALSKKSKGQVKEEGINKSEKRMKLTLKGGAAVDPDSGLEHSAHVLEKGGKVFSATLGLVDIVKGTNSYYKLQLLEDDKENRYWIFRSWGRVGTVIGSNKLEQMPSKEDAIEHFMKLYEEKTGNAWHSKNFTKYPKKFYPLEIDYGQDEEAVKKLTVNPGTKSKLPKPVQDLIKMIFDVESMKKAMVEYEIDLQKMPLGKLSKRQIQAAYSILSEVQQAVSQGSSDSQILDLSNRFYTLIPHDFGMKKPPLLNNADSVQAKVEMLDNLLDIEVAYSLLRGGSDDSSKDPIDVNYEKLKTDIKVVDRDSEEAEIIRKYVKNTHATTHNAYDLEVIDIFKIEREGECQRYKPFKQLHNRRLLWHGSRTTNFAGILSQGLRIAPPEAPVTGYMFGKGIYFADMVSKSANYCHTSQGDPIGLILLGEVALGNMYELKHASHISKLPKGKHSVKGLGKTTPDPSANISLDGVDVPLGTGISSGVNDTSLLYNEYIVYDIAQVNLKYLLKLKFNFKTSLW

For `CCCCNCCSCc1nc2c(C(N)=O)cccc2[nH]1` [Compound 1, 2-(2-Butylamino-ethylsulfanylmethyl)-1H-benzimidazole-4-carboxylic Acid Amide], at purified PARP protein, the Ki (as a rule, the equilibrium dissociation constant of an inhibitor or competing ligand from its target) came out at 29 ± 7 nM. Further, the “Cytotoxicity Potentiation PF50” value with A549 cells is listed as 1.2.

On to `NC(=O)c1cccc2[nH]c(CSc3ccccc3C3=NCCCN3)nc12` [Compound 7], for which the Ki at purified PARP protein was determined as 6.9 ± 0.4 nM. For the same compound, the “Cytotoxicity Potentiation PF50” value in the series on A549 cells was found to be 2.2.

On to `CC(=O)Nc1ccc(SCc2nc3c(C(N)=O)cccc3[nH]2)cc1` [Compound 9, 2-(4-Acetylamino-phenylsulfanylmethyl)-1H-benzimidazole-4-carboxylic Acid Amide], for which the Ki on purified PARP protein was found to be 10 ± 3 nM. In addition, the “Cytotoxicity Potentiation PF50” value in the series on A549 cells was determined as 1.1.

On to `CC(=O)c1ccc(N2CCN(Cc3nc4c(C(N)=O)cccc4[nH]3)CC2)cc1` [Compound 17, 2-[4-(4-Acetyl-phenyl)-piperazin-1-vimethyl]-1H-benzimidazole-4-carboxylic Acid Amide], for which the inhibition constant (Ki) at purified PARP protein amounted to 19 ± 2 nM. Moreover, the “Cytotoxicity Potentiation PF50” value in the series with A549 cells stood at 1.2.

Consider `CN(CCc1ccccc1)Cc1nc2c(C(N)=O)cccc2[nH]1` [Compound 18, 2-[(Methyl-phenethyl-amino)-methyl]-1H-benzimidazole-4-carboxylic Acid Amide], for which the Ki on purified PARP protein was determined as 8.6 ± 0.1 nM. For the same compound, in the series on A549 cells, the “Cytotoxicity Potentiation PF50” value is reported as 1.4.

As for `NC(=O)c1cccc2[nH]c(CN3CCc4ccccc4C3)nc12` [Compound 19, 2-(3,4-Dihydro-1H-isoqluinolin-2-ylmethyl)-1H-benzimidazole-4-carboxylic Acid Amide], the Ki at purified PARP protein was 22 ± 2 nM. In the series with A549 cells, the “Cytotoxicity Potentiation PF50” value is given as 1.1.

Consider `NC(=O)c1cccc2[nH]c(CS(=O)(=O)c3ccc([N+](=O)[O-])cc3)nc12` [Compound 27, 2-(4-Nitro-benzenesulfonylmethyl)-1H-benzimidazole-4-carboxylic Acid Amide], for which the Ki at purified PARP protein came to 2.5 ± 0.2 nM. The “Cytotoxicity Potentiation PF50” value in the series with A549 cells stood at 1.3.

Take `NC(=O)c1cccc2[nH]c(C[S+]([O-])c3ccc([N+](=O)[O-])cc3)nc12` (stereo not drawn) [Compound 28, 2-(4-Nitro-benzenesulfinylmethyl)-1H-benzimidazole-4-carboxylic Acid Amide]: the inhibitory constant (Ki) at purified PARP protein worked out at 3.9 ± 0.6 nM. Further, the “Cytotoxicity Potentiation PF50” value in the series on A549 cells is on record as 1.4.

Consider `NC(=O)c1cccc2[nH]c(CS(=O)(=O)c3ccc(O)cc3)nc12` [Compound 29, 2-(4-Hydroxy-benzenesulfonylmethyl)-1H-benzimidazole-4-carboxylic Acid Amide], for which the Ki at purified PARP protein is 24 nM. For the same compound, in the series with A549 cells, the “Cytotoxicity Potentiation PF50” value was determined as 1.2.

Consider `CCCCNCCS(=O)(=O)Cc1nc2c(C(N)=O)cccc2[nH]1` [Compound 30, 2-(2-Butylamino-ethanesulfonylmethyl)-1H-benzimidazole-4-carboxylic Acid Amide], for which, at purified PARP protein, the Ki came to 26 nM. Also, in the series with A549 cells, the “Cytotoxicity Potentiation PF50” value is given as 1.1.

Consider `CC(=O)Nc1ccc(S(=O)(=O)Cc2nc3c(C(N)=O)cccc3[nH]2)cc1` [Compound 32, 2-(4-Acetylamino-benzenesulfonylmethyl)-1H-benzimidazole-4-carboxylic Acid Amide], for which the Ki at purified PARP protein amounted to 3.8 ± 0.5 nM. For the same compound, the “Cytotoxicity Potentiation PF50” value in the series with A549 cells is given as 1.1.

As for `COc1ccc(S(=O)(=O)Cc2nc3c(C(N)=O)cccc3[nH]2)cc1` [Compound 33, 2-(4-Methoxy-benzenesulfonylmethyl)-1H-benzimidazole-4-carboxylic Acid Amide], on purified PARP protein, the Ki was found to be 10.3 ± 0.3 nM. Also, the “Cytotoxicity Potentiation PF50” value in the series with A549 cells is 1.3.

Consider `NC(=O)c1cccc2[nH]c(CS(=O)(=O)c3ccc(C(F)(F)F)cc3)nc12` [Compound 34, 2-(4-Trifluoromethyl-benzenesulfonylmethyl)-1H-benzimidazole-4-carboxylic Acid Amide], for which the Ki on purified PARP protein is 12 ± 1 nM. For the same compound, in the series on A549 cells, the “Cytotoxicity Potentiation PF50” value was 1.2.

`NC(=O)c1cccc2[nH]c(CS(=O)(=O)c3ccc(NC(=O)OCc4ccccc4)cc3)nc12` [Compound 38, [4(4-Carbamoyl-1H-benzoimidazol-2-ylmethanesulfonyl)-phenyl]-carbamic Acid Benzyl Ester]: the Ki on purified PARP protein was determined as 16 ± 1 nM. Besides, in the series with A549 cells, the “Cytotoxicity Potentiation PF50” value is recorded as 1.1.

Turning to `CC(=O)Nc1ccc(CSc2nc3c(C(N)=O)cccc3[nH]2)cc1` [Compound 42, 2-(4-Acetylamino-benzylsulfanyl)-1H-benzimidazole-4-carboxylic Acid Amide], the Ki on purified PARP protein is 11 ± 3 nM. For the same compound, in the series on A549 cells, the “Cytotoxicity Potentiation PF50” value came out at 1.1.

As to `CC(=O)Nc1ccc(S(=O)(=O)Cc2nc3c(C(N)=O)cccc3n2C)cc1` [Compound 48, 2-(4-Acetylamino-benzenesulfonylmethyl)-1-methyl-1H-benzoimidazole-4-carboxylic Acid Amide], the Ki at purified PARP protein came out at 10 ± 3 nM. The “Cytotoxicity Potentiation PF50” value in the series with A549 cells was determined as 1.2.

For the compound `NC(=O)c1cccc2[nH]c(CS(=O)(=O)c3ccc(NC(=O)CO)cc3)nc12` [Compound 49], the inhibition constant (Ki) on purified PARP protein is 7.4 nM. The “Cytotoxicity Potentiation PF50” value in the series on A549 cells was found to be 1.0.

`NC(=O)c1cccc2[nH]c(NCCc3cccs3)nc12` [Compound 60, 2-(2-Thiophen-2-yl-ethylamino)-1H-benzoimidazole-4-carboxylic Acid Amide]: the Ki at purified PARP protein was found to be 81 ± 10 nM.

`NC(=O)c1cccc2[nH]c(NCCc3cnc[nH]3)nc12` [Compound 61, 2-[2-(3H-Imidazol-4-yl)-ethylamino]-1H-benzoimidazole-4-carboxylic Acid Amide]: on purified PARP protein, the Ki stood at 12 ± 1 nM.
